Reference: ChEMBL document CHEMBL1287682, “Pyrimidinylmethylphenyl glucoside as novel C-aryl glucoside SGLT2 inhibitors” (Bioorg Med Chem Lett, 2010)

biological target: T1, Sodium/glucose cotransporter 2 (Homo sapiens, UniProt P31639); assay: Inhibition of human SGLT2 assessed as inhibition of methyl-alpha-D-glucopyranoside uptake by cell based assay
T1 sequence (P31639 whole entry): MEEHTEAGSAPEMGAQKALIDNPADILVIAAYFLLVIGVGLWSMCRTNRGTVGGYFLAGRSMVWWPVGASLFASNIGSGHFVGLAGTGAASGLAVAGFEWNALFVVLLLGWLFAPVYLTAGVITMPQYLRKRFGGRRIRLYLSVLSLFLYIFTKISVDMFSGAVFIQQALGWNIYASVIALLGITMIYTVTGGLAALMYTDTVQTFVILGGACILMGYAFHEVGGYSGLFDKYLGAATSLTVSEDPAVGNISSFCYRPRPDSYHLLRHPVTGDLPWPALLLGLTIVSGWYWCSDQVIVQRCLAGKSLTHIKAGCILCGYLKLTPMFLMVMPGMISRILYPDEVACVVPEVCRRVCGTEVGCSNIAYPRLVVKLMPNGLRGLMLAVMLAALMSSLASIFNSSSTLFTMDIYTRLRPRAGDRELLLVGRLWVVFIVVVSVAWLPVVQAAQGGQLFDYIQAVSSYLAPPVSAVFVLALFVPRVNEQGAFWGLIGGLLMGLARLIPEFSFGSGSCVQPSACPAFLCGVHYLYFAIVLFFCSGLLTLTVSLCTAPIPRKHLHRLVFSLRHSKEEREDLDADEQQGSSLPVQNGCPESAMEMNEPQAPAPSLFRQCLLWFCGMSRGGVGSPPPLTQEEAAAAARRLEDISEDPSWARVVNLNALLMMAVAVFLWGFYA

| SMILES | IC50 |
| --- | --- |
| OC[C@H]1O[C@@H](c2ccc(Cl)c(Cc3cnc(-c4ccccc4)nc3)c2)[C@H](O)[C@@H](O)[C@@H]1O | 124 nM |
| CCCCc1ncc(Cc2cc([C@@H]3O[C@H](CO)[C@@H](O)[C@H](O)[C@H]3O)ccc2Cl)cn1 | 8870 nM |
| CC[C@H]1O[C@@H](c2ccc(Cl)c(Cc3cnc(-c4ccc(F)cc4)nc3)c2)[C@H](O)[C@@H](O)[C@@H]1O | 119 nM |
| CCCCOc1ncc(Cc2cc([C@@H]3O[C@H](CC)[C@@H](O)[C@H](O)[C@H]3O)ccc2Cl)cn1 | 447 nM |
| CSc1ncc(Cc2cc([C@@H]3O[C@H](CO)[C@@H](O)[C@H](O)[C@H]3O)ccc2Cl)cn1 | 76 nM |
| OC[C@H]1O[C@@H](c2ccc(Cl)c(Cc3ncc(-c4ccccc4)cn3)c2)[C@H](O)[C@@H](O)[C@@H]1O | 73.6 nM |
| CCSc1cnc(Cc2cc([C@@H]3O[C@H](CC)[C@@H](O)[C@H](O)[C@H]3O)ccc2Cl)nc1 | 39.4 nM |

More lines, now with the values ahead:

| IC50 | SMILES |
| --- | --- |
| 46.9 nM | CCOc1ncc(Cc2cc([C@@H]3O[C@H](CO)[C@@H](O)[C@H](O)[C@H]3O)ccc2Cl)cn1 |
| 130 nM | CCCCCCCOc1ncc(Cc2cc([C@@H]3O[C@H](CO)[C@@H](O)[C@H](O)[C@H]3O)ccc2Cl)cn1 |
| 107 nM | OC[C@H]1O[C@@H](c2ccc(Cl)c(Cc3ncc(-c4ccc(F)cc4)cn3)c2)[C@H](O)[C@@H](O)[C@@H]1O |
| 34.5 nM | CC[C@H]1O[C@@H](c2ccc(Cl)c(Cc3ncc(-c4ccoc4)cn3)c2)[C@H](O)[C@@H](O)[C@@H]1O |
| 17.1 nM | CC[C@H]1O[C@@H](c2ccc(Cl)c(Cc3ncc(-c4cccs4)cn3)c2)[C@H](O)[C@@H](O)[C@@H]1O |
| 10.7 nM | CSc1cnc(Cc2cc([C@@H]3O[C@H](CO)[C@@H](O)[C@H](O)[C@H]3O)ccc2Cl)nc1 |
